Experimental data taken from PubChem BioAssay (NCI).
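Method: 48-hour compound exposure of cells in 96-well plates, five concentrations, linear interpolation of endpoints. At the GI50, growth is halved. The concentration for full growth arrest is given as TGI.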

What was measured:
Test in all cases: growth of human tumour cells (NCI), 48 h; in the data active means GI50 below about 0.43 µM; inactive means the rest
COLO 205 colon = tested on: COLO 205 colon
SW-620 colon = tested on: SW-620 colon
NCI-H23 lung = tested on: NCI-H23 lung
PC-3 prostate = tested on: PC-3 prostate
CCRF-CEM leukemia = tested on: CCRF-CEM leukemia
KM12 colon = tested on: KM12 colon
HOP-62 NSCLC = tested on: HOP-62 NSCLC
NCI/ADR-RES ovarian = tested on: NCI/ADR-RES ovarian
M14 melanoma = tested on: M14 melanoma
HS 578T breast = tested on: HS 578T breast
HCT-116 colon = tested on: HCT-116 colon
OVCAR-3 ovarian = tested on: OVCAR-3 ovarian
NCI-H522 lung = tested on: NCI-H522 lung
U251 CNS = tested on: U251 CNS
EKVX NSCLC = tested on: EKVX NSCLC
OVCAR-5 ovarian = tested on: OVCAR-5 ovarian
CAKI-1 renal = tested on: CAKI-1 renal
HT29 colon = tested on: HT29 colon
MDA-MB-231 breast = tested on: MDA-MB-231 breast
SK-MEL-5 melanoma = tested on: SK-MEL-5 melanoma
K-562 leukemia = tested on: K-562 leukemia
HCT-15 colon = tested on: HCT-15 colon
MALME-3M melanoma = tested on: MALME-3M melanoma
SK-MEL-2 melanoma = tested on: SK-MEL-2 melanoma
IGROV1 ovarian = tested on: IGROV1 ovarian
UACC-257 melanoma = tested on: UACC-257 melanoma
SF-295 CNS = tested on: SF-295 CNS
SNB-19 CNS = tested on: SNB-19 CNS
UO-31 renal = tested on: UO-31 renal
NCI-H226 lung = tested on: NCI-H226 lung
NCI-H460 lung = tested on: NCI-H460 lung
OVCAR-8 ovarian = tested on: OVCAR-8 ovarian
MOLT-4 leukemia = tested on: MOLT-4 leukemia
T-47D breast = tested on: T-47D breast
BT-549 breast = tested on: BT-549 breast
SF-268 CNS = tested on: SF-268 CNS
MCF7 breast = tested on: MCF7 breast
786-0 renal = tested on: 786-0 renal
HL-60(TB) leukemia = tested on: HL-60(TB) leukemia
A549 NSCLC = tested on: A549 NSCLC
MDA-MB-435 = tested on: MDA-MB-435
RPMI-8226 leukemia = tested on: RPMI-8226 leukemia
OVCAR-4 ovarian = tested on: OVCAR-4 ovarian
LOX IMVI melanoma = tested on: LOX IMVI melanoma
SN12C renal = tested on: SN12C renal
SK-MEL-28 melanoma = tested on: SK-MEL-28 melanoma
HOP-92 NSCLC = tested on: HOP-92 NSCLC
TK-10 renal = tested on: TK-10 renal
DU-145 prostate = tested on: DU-145 prostate
UACC-62 melanoma = tested on: UACC-62 melanoma
HCC-2998 colon = tested on: HCC-2998 colon
A498 renal = tested on: A498 renal
SK-OV-3 ovarian = tested on: SK-OV-3 ovarian
ACHN renal = tested on: ACHN renal
SF-539 CNS = tested on: SF-539 CNS
RXF 393 renal = tested on: RXF 393 renal
SNB-75 CNS = tested on: SNB-75 CNS

CC(C)=NN/C(=N\S(=O)(=O)c1cc2ccccc2s1)Nc1ccc(Cl)cc1
60.2 µM: TGI (EKVX NSCLC)
76.3 µM: TGI (T-47D breast)
> 100 µM: TGI (COLO 205 colon) | TGI (SW-620 colon) | TGI (NCI-H23 lung) | TGI (PC-3 prostate) | TGI (CCRF-CEM leukemia) | TGI (KM12 colon) | TGI (HOP-62 NSCLC) | TGI (NCI/ADR-RES ovarian) | TGI (M14 melanoma) | TGI (HS 578T breast) | TGI (HCT-116 colon) | TGI (OVCAR-3 ovarian) | TGI (NCI-H522 lung) | TGI (U251 CNS) | TGI (OVCAR-5 ovarian) | TGI (CAKI-1 renal) | TGI (HT29 colon) | TGI (MDA-MB-231 breast) | TGI (SK-MEL-5 melanoma) | TGI (K-562 leukemia) | TGI (HCT-15 colon) | TGI (MALME-3M melanoma) | TGI (SK-MEL-2 melanoma) | TGI (IGROV1 ovarian) | TGI (UACC-257 melanoma) | TGI (SF-295 CNS) | TGI (SNB-19 CNS) | TGI (UO-31 renal) | TGI (NCI-H226 lung) | TGI (NCI-H460 lung) | TGI (OVCAR-8 ovarian) | TGI (MOLT-4 leukemia) | TGI (BT-549 breast) | TGI (SF-268 CNS) | TGI (MCF7 breast) | TGI (786-0 renal) | TGI (HL-60(TB) leukemia) | TGI (A549 NSCLC) | TGI (MDA-MB-435) | TGI (RPMI-8226 leukemia) | TGI (OVCAR-4 ovarian) | TGI (LOX IMVI melanoma) | TGI (SN12C renal) | TGI (SK-MEL-28 melanoma) | TGI (HOP-92 NSCLC) | TGI (TK-10 renal) | TGI (DU-145 prostate) | TGI (UACC-62 melanoma)

O=C(O)[C@@H]1CCCN1Cc1cc2cc3c(cc2c2cc(OCc4ccccc4)ccc12)OCO3
44.6 µM: TGI (NCI-H460 lung)
45 µM: TGI (SF-295 CNS)
65.9 µM: TGI (DU-145 prostate)
49.2 µM: TGI (HS 578T breast)
63.3 µM: TGI (HOP-92 NSCLC)
60.9 µM: TGI (RPMI-8226 leukemia)
54.6 µM: TGI (SW-620 colon)
45.3 µM: TGI (A498 renal)
43.9 µM: TGI (MCF7 breast) | TGI (SK-MEL-28 melanoma)
61.7 µM: TGI (EKVX NSCLC)
37.2 µM: TGI (HT29 colon)
52.4 µM: TGI (SNB-75 CNS)
58.3 µM: TGI (NCI-H522 lung)
43.6 µM: TGI (OVCAR-3 ovarian)
31.7 µM: TGI (LOX IMVI melanoma)
50.5 µM: TGI (NCI-H226 lung)
72.7 µM: TGI (SN12C renal)
62.6 µM: TGI (IGROV1 ovarian)
58.4 µM: TGI (MDA-MB-435)
54 µM: TGI (T-47D breast)
77.7 µM: TGI (TK-10 renal)
52.9 µM: TGI (BT-549 breast)
81.3 µM: TGI (SK-OV-3 ovarian)
86.6 µM: TGI (ACHN renal)
42.6 µM: TGI (MDA-MB-231 breast) | TGI (RXF 393 renal)
30.6 µM: TGI (COLO 205 colon)
48.3 µM: TGI (SNB-19 CNS)
31.6 µM: TGI (SK-MEL-5 melanoma)
53.6 µM: TGI (CAKI-1 renal)
60.1 µM: TGI (MALME-3M melanoma) | TGI (SF-539 CNS)
45.5 µM: TGI (SK-MEL-2 melanoma)
inactive: GI50 (COLO 205 colon) 14.7 µM | GI50 (SW-620 colon) 14.1 µM | GI50 (NCI-H23 lung) 38.4 µM | GI50 (PC-3 prostate) 29.8 µM | GI50 (CCRF-CEM leukemia) 23.2 µM | GI50 (HCC-2998 colon) 36.4 µM | GI50 (KM12 colon) 31.8 µM | GI50 (HOP-62 NSCLC) 51.2 µM | GI50 (NCI/ADR-RES ovarian) 43.9 µM | GI50 (M14 melanoma) 46.1 µM | GI50 (HS 578T breast) 17.6 µM | GI50 (HCT-116 colon) 37.6 µM | GI50 (OVCAR-3 ovarian) 17.5 µM | GI50 (NCI-H522 lung) 23.7 µM | GI50 (A498 renal) 13.5 µM | GI50 (U251 CNS) 30.1 µM | GI50 (EKVX NSCLC) 21.8 µM | GI50 (SK-OV-3 ovarian) 32.4 µM | GI50 (OVCAR-5 ovarian) 21.4 µM | GI50 (CAKI-1 renal) 20.3 µM | GI50 (HT29 colon) 18 µM | GI50 (MDA-MB-231 breast) 15 µM | GI50 (SK-MEL-5 melanoma) 14.7 µM | GI50 (K-562 leukemia) 28.7 µM | GI50 (HCT-15 colon) 28.5 µM | GI50 (MALME-3M melanoma) 25.8 µM | GI50 (SK-MEL-2 melanoma) 20.1 µM | GI50 (IGROV1 ovarian) 24.1 µM | GI50 (UACC-257 melanoma) 28.9 µM | GI50 (SF-295 CNS) 18.3 µM | GI50 (SNB-19 CNS) 18.5 µM | GI50 (UO-31 renal) 24.3 µM | GI50 (NCI-H226 lung) 21.8 µM | GI50 (NCI-H460 lung) 17.8 µM | GI50 (OVCAR-8 ovarian) 30.8 µM | GI50 (MOLT-4 leukemia) 30.7 µM | GI50 (ACHN renal) 26.1 µM | GI50 (T-47D breast) 19.2 µM | GI50 (SF-539 CNS) 25.1 µM | GI50 (BT-549 breast) 22.6 µM | GI50 (SF-268 CNS) 24.4 µM | GI50 (MCF7 breast) 17.2 µM | GI50 (786-0 renal) 55 µM | GI50 (A549 NSCLC) 27.1 µM | GI50 (MDA-MB-435) 23.4 µM | GI50 (RPMI-8226 leukemia) 17 µM | GI50 (LOX IMVI melanoma) 17.1 µM | GI50 (SN12C renal) 23.1 µM | GI50 (SK-MEL-28 melanoma) 19.4 µM | GI50 (HOP-92 NSCLC) 21.9 µM | GI50 (TK-10 renal) 27.8 µM | GI50 (RXF 393 renal) 20.6 µM | GI50 (DU-145 prostate) 19.4 µM | GI50 (SNB-75 CNS) 21.1 µM | GI50 (UACC-62 melanoma) 16.8 µM
71.8 µM: TGI (UACC-257 melanoma)
54.9 µM: TGI (OVCAR-5 ovarian)
33.2 µM: TGI (UACC-62 melanoma)
> 100 µM: TGI (NCI-H23 lung) | TGI (PC-3 prostate) | TGI (CCRF-CEM leukemia) | TGI (HCC-2998 colon) | TGI (KM12 colon) | TGI (HOP-62 NSCLC) | TGI (NCI/ADR-RES ovarian) | TGI (M14 melanoma) | TGI (HCT-116 colon) | TGI (U251 CNS) | TGI (K-562 leukemia) | TGI (HCT-15 colon) | TGI (UO-31 renal) | TGI (OVCAR-8 ovarian) | TGI (MOLT-4 leukemia) | TGI (786-0 renal) | TGI (A549 NSCLC)
55.9 µM: TGI (SF-268 CNS)
